ChEMBL document CHEMBL1629595, “Truncated tni module adjacent to the complex integron of salmonella genomic island 1 in Salmonella enterica serovar Virchow” (2009)
Values after ≈ are worked out from the molar mass of the structure shown.

What was measured:
Salmonella typhimurium = test: Antibacterial activity against multidrug-resistant Salmonella enterica subsp. enterica serovar Typhimurium BN9181 expressing floR; assay type: functional
[1] = Antibacterial activity against multidrug-resistant Salmonella enterica serovar Virchow B94 expressing floR2; assay type: functional, Salmonella enterica subsp. enterica serovar Virchow
[2] = Antibacterial activity against multidrug-resistant Salmonella enterica serovar Virchow B98 expressing floR2; assay type: functional, Salmonella enterica subsp. enterica serovar Virchow
[3] = Antibacterial activity against multidrug-resistant Salmonella enterica serovar Virchow B100 expressing floR2; assay type: functional, Salmonella enterica subsp. enterica serovar Virchow

Compound	MIC (Salmonella typhimurium) [µg/mL]	MIC [1] [µg/mL]	MIC [2] [µg/mL]	MIC [3] [µg/mL]
O=C(N[C@H](CO)[C@H](O)c1ccc([N+](=O)[O-])cc1)C(Cl)Cl [CHLORAMPHENICOL]	256 (≈ 792 µM)	> 256	> 256	> 256
CS(=O)(=O)c1ccc([C@@H](O)[C@@H](CF)NC(=O)C(Cl)Cl)cc1 [FLORFENICOL]	64 (≈ 179 µM)	32 (≈ 89.3 µM)	32 (≈ 89.3 µM)	32 (≈ 89.3 µM)
